Results as given in patent US9523100B2, “Pesticidal compositions and related methods” (DOW AGROSCIENCES LLC, priority 2013, dated 2016).

Tests used:
[1] = tested on: Green Peach Aphid (GPA) (Myzus persicae) (MYZUPE); experiment: Bioassay for Green Peach Aphid (GPA), foliar spray on cabbage seedlings; assay type: in vivo; conditions: 72 h, 200 ppm foliar spray on cabbage seedlings, graded after three days, Abbott corrected % control, read-out: GPA 200 ppm, % Control (or Mortality) rating
How it was run: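 Foliar spray test: 200 ppm solutions (0.025% Tween 20 in water, 20% acetone/methanol) applied to both leaf sides of aphid-infested cabbage seedlings. After 3 days at about 25° C, live aphids per plant were counted; control corrected to solvent check via Abbott's formula.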

[2] = tested on: Sweetpotato Whitefly-Crawler (WF) (Bemisia tabaci) (BEMITA); experiment: Insecticidal test for Sweetpotato Whitefly-Crawler (WF) in foliar spray assay on cotton plants; assay type: in vivo; conditions: 216 h, 200 ppm foliar spray on cotton plants, graded after 9 days, Abbott corrected % control, read-out: WF 200 ppm, % Control (or Mortality) rating
How it was run: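 Whitefly nymph control on egg-infested cotton (eggs laid 4–5 days pre-treatment), foliar spray at 200 ppm test compound. Live late-stage nymphs counted microscopically 9 days later at ~25 °C; control calculated by Abbott's formula relative to acetone-diluent-sprayed plants.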

Row | Structure (SMILES) | mortality at 200 ppm [1] | mortality at 200 ppm [2]
1 | CCN(C(=O)CC/C(C)=N/OCCC1CC1(F)F)c1cn(-c2cccnc2)nc1Cl (stereo not shown) [FA50, (E)-N-(3-Chloro-1-(pyridin-3-yl)-1H-pyrazol-4-yl)-4-((2-(2,2-difluorocyclopropyl)ethoxy)imino)-N-ethylpentanamide] | 80 to 100% | 80 to 100%
2 | CCN(C(=O)C(C)C/C(C)=N\OCCC1CC1(F)F)c1cn(-c2cccnc2)nc1Cl (stereo not shown) [FA57, (Z)-N-(3-Chloro-1-(pyridin-3-yl)-1H-pyrazol-4-yl)-4-((2-(2,2-difluorocyclopropyl)ethoxy)imino)-N-ethyl-2-methylpentanamide] | 80 to 100% | 0 to 80%
3 | CCN(C(=O)C(C)C/C=N\OCCC1CC1(F)F)c1cn(-c2cccnc2)nc1Cl (stereo not shown) [FA59, (Z)-N-(3-Chloro-1-(pyridin-3-yl)-1H-pyrazol-4-yl)-4-((2-(2,2-difluorocyclopropyl)ethoxy)imino)-N-ethyl-2-methylbutanamide] | 80 to 100% | 80 to 100%
4 | CCN(C(=O)C(C)C/C=N/OCCC1CC1(F)F)c1cn(-c2cccnc2)nc1Cl (stereo not shown) [FA60, (E)-N-(3-Chloro-1-(pyridin-3-yl)-1H-pyrazol-4-yl)-4-((2-(2,2-difluorocyclopropyl)ethoxy)imino)-N-ethyl-2-methylbutanamide] | 80 to 100% | 80 to 100%
5 | CCN(C(=O)CCC1CCN(CCC2CC2(F)F)C1=O)c1cn(-c2cccnc2)nc1Cl (stereo not shown) [FA62, N-(3-Chloro-1-(pyridin-3-yl)-1H-pyrazol-4-yl)-3-(1-(2-(2,2-difluorocyclopropyl)ethyl)-2-oxopyrrolidin-3-yl)-N-ethylpropanamide] | 80 to 100% | 80 to 100%
6 | CCN(C(=O)CC1CCNC1=O)c1cn(-c2cccnc2)nc1Cl (stereo not shown) [FA63] | 80 to 100% | 80 to 100%
7 | CCN(C(=O)CC1CCN(CCC2CC2(F)F)C1=O)c1cn(-c2cccnc2)nc1Cl (stereo not shown) [FA64, N-(3-Chloro-1-(pyridin-3-yl)-1H-pyrazol-4-yl)-2-(1-(2-(2,2-difluorocyclopropyl)ethyl)-2-oxopyrrolidin-3-yl)-N-ethylacetamide] | 80 to 100% | 80 to 100%
8 | CCN(C(=O)CC1CCN(CC(F)(F)F)C1=O)c1cn(-c2cccnc2)nc1Cl (stereo not shown) [FA65, N-(3-Chloro-1-(pyridin-3-yl)-1H-pyrazol-4-yl)-N-ethyl-2-(2-oxo-1-(2,2,2-trifluoroethyl)pyrrolidin-3-yl)acetamide] | 80 to 100% | 80 to 100%
9 | CCN(C(=O)CC(C)=O)c1cn(-c2cccnc2)nc1Cl [FA66, N-(3-chloro-1-(pyridin-3-yl)-1H-pyrazol-4-yl)-N-ethyl-3-oxobutanamide] | 80 to 100% | 80 to 100%
10 | CCN(C(=O)CCn1ccc(C(C)=O)n1)c1cn(-c2cccnc2)nc1Cl [FA68, 3-(3-Acetyl-1H-pyrazol-1-yl)-N-(3-chloro-1-(pyridin-3-yl)-1H-pyrazol-4-yl)-N-ethylpropanamide] | < 0% | 80 to 100%
11 | CC(=O)CCC(=O)N(C)c1cn(-c2cccnc2)nc1C [FA69, N-methyl-N-(3-methyl-1-(pyridin-3-yl)-1H-pyrazol-4-yl)-4-oxopentanamide] | 0 to 80% | 80 to 100%
12 | CCN(C(=O)CCCC(C)=O)c1cn(-c2cncc(F)c2)nc1C [FA70, N-Ethyl-N-(1-(5-fluoropyridin-3-yl)-3-methyl-1H-pyrazol-4-yl)-5-oxohexanamide] | 0 to 80% | 80 to 100%
13 | CCN(C(=O)C1CCC(=O)C1)c1cn(-c2cncc(F)c2)nc1C (stereo not shown) [FA71, N-Ethyl-N-(1-(5-fluoropyridin-3-yl)-3-methyl-1H-pyrazol-4-yl)-3-oxocyclopentanecarboxamide] | 0 to 80% | 0 to 80%
14 | CCN(C(=O)COC(C)=O)c1cn(-c2cccnc2)nc1Cl [FA72, 2-((3-Chloro-1-(pyridin-3-yl)-1H-pyrazol-4-yl)(ethyl)amino)-2-oxoethyl acetate] | 0 to 80% | 80 to 100%
